This passage reports IC50 results from BindingDB's records for doi:10.1021/jm00105a069 (Schering-Plough, 1991).

Each structure is given as a SMILES string. Bounds are passed on as bounds.

The experiment can be described thus: Concentration required to cause 50% inhibition of platelet activating factor (PAF)-induced platelet aggregation of human platelet rich plasma when challenged with 25 nM PAF.
One may read the IC50 as the concentration that inhibits the measured activity by half. A higher IC50 goes with lower potency. The molecule `CN1CCC(=C2c3ccccc3CCc3cccnc32)CC1` returned an IC50 of more than 50 µM.

`COc1cc([C@@H]2CC[C@@H](c3cc(OC)c(OC)c(OC)c3)O2)cc(OC)c1OC` gave an IC50 of 1.5 µM.

The molecule `CC(C)(C)C(=O)N1CCC(=C2c3ccc(Cl)cc3CCc3cccnc32)CC1` came in with an IC50 of more than 50 µM.

For the molecule `CC(=O)N1CCC(=C2c3ccc(Br)cc3CCc3cccnc32)CC1`, the IC50 was 0.81 µM.

Consider `COc1ccc2c(c1)CCc1cccnc1C2=C1CCN(C(C)=O)CC1`, for which 3.4 µM corresponded to half-maximal inhibition (IC50).

Take `CC(=O)N1CCC(=C2c3cc(F)c(F)cc3CCc3cccnc32)CC1`: inhibition was half-maximal at 1 µM (IC50).

As for `CC(=O)N1CCC(=C2c3cc(F)ccc3CCc3cccnc32)CC1`, the IC50 was found to be 0.82 µM.

The molecule `CC(=O)N1CCC(=C2c3cc(Cl)c(Cl)cc3CCc3cccnc32)CC1` returned an IC50 of 1.8 µM.

As to `CC(=O)N1CCC(=C2c3cc(Cl)ccc3CCc3cccnc32)CC1`, the IC50 stood at 3.4 µM.

Take `CCC(=O)N1CCC(=C2c3ccc(Cl)cc3CCc3cccnc32)CC1`: inhibition was half-maximal at 2.4 µM (IC50).

`CC(=O)N1CCC(=C2c3ccc(F)cc3CCc3cccnc32)CC1` showed an IC50 of 0.67 µM.

Turning to `CC(=O)N(C)CC/C=C1\c2ccc(Cl)cc2CCc2cccnc21`, the IC50 was more than 50 µM.

As for `O=CN1CCC(=C2c3ccc(Cl)cc3CCc3cccnc32)CC1`, 13 µM corresponded to half-maximal inhibition (IC50).

As for `CCCC(=O)N1CCC(=C2c3ccc(Cl)cc3CCc3cccnc32)CC1`, half-maximal inhibition (IC50) was put at 33 µM.

`O=C(c1ccccc1)N1CCC(=C2c3ccc(Cl)cc3CCc3cccnc32)CC1` had an IC50 of more than 50 µM.

`CC(=O)N1CCC(=C2c3ccccc3CCc3cccnc32)CC1`: the IC50 is 1.4 µM.

Turning to `CC(=O)N1CCC(=C(c2ccc(Cl)cc2)c2ccccn2)CC1`, it took 28 µM to reach half-maximal inhibition (IC50).

In turn, `CC(=O)N1CCC(=C2c3ccc(C)cc3CCc3cccnc32)CC1` returned an IC50 of 1 µM.

Molecule `CC(=O)C1CCC(=C2c3ccc(Cl)cc3CCc3cccnc32)CC1` (centres undefined) showed an IC50 of more than 50 µM.

In turn, `CC(=O)N1CCC(=C2c3ccc(Cl)cc3CCc3cccnc32)CC1` yielded an IC50 of 0.61 µM.

Molecule `CC(=O)N(C)CC/C=C1/c2ccc(Cl)cc2CCc2cccnc21` had an IC50 of more than 50 µM.

Molecule `CC(=O)N1CCC(=C2c3ccc(O)cc3CCc3cccnc32)CC1` registered an IC50 of 8.7 µM.

On to `CC(=O)N1CCC(=C2c3ccccc3CCc3ccccc32)CC1`, for which 41 µM corresponded to half-maximal inhibition (IC50).

In turn, `CN(C)CCC(c1ccc(Cl)cc1)c1ccccn1` (centres undefined) [clorfeniramina] came in with a half-maximal inhibitory concentration (IC50) of more than 50 µM.
